Laboratory results as given in patent US20110091472A1, “COMPOSITIONS FOR TREATING PSORIASIS” (Novartis Vaccines and Diagnostic, Inc., priority 1999, published 2011).

System: lesional psoriatic skin grafted onto SCID mice
Assay: SCID mouse psoriatic skin graft model, methotrexate alone or in combination with low dose 5D12
Assay type: in vivo
Details: methotrexate 0.1 to 0.4 mg/kg increasing regimen in combination with the isotype control antibody
Protocol: This experiment was conducted, using the mouse model described in Example 1, to quantitate the anti-psoriatic effects of low doses of anti-CD40 antibody. The low-dose treatment with antibody 5D12 consisted of intraperitoneal injections of mice with 0.5 mg/kg 5D12 every other day for two weeks. High-dose treatment consisted of intraperitoneal injections of mice with 5 mg/kg 5D12 every other day for two weeks. […] The treatment control group consisted of mice injected intraperitoneally with isotype control antibody for two weeks. Four weeks after the termination of the treatments, the grafts were harvested and either fixed in formaldehyde or snap-frozen. Fixed material was used for morphological analyses based on H+E staining, and the snap-frozen material used for additional immunohistochemical analyses.
The effects of methotrexate treatment alone or in combination with low dose (0.5 mg/kg) 5D12 treatment were evaluated. An increasing dosing regimen was chosen, starting with 0.1 mg/kg and increasing the dose by 0.05 mg/kg every week until 0.4 mg/kg was reached. The scheme was combined with the application of the isotype control antibody or with the low dose 5D12 treatment schedule. The isotype control treatment served as a negative control and the low dose 5D12 treatment as a positive control.

CN(Cc1cnc2nc(N)nc(N)c2n1)c1ccc(C(=O)N[C@@H](CCC(=O)O)C(=O)O)cc1 [Methotrexate]
effects on epidermal thickness (in words): only minimal effects on epidermal thickness
